Data reported in BindingDB's records for doi:10.1021/jm00041a011 (Ohio State University, 1994).
Where “and” joins values, the source holds several entries; their conditions need not be identical. Equal entries are not always repeated. Structures can show the parent of a compound that is named as a salt.

experiment: Tested for its ability to antagonize epinephrine induced primary wave aggregation in human platelets at alpha-2A-adrenergic receptor sites.

Structure (SMILES)	IC50
OC(c1cnc[nH]1)(c1cccc2ccccc12)C(F)(F)F (stereo unspecified) [2,2,2-Trifluoro-1-(1H-imidazol-4-yl)-1-naphthalen-1-yl-ethanol; hydrochloride]	> 300 µM
CC(c1cnc[nH]1)c1cccc2ccccc12 (stereo unspecified) [4-(1-Naphthalen-1-yl-ethyl)-1H-imidazole]	12.3 µM and 9.1 µM
COC(c1cnc[nH]1)c1cccc2ccccc12 (stereo unspecified) [4-(Methoxy-naphthalen-1-yl-methyl)-1H-imidazole; hydrochloride]	380 µM
c1ccc2c(Cc3cnc[nH]3)cccc2c1 [4-Naphthalen-1-ylmethyl-1H-imidazole; hydrochloride]	3 µM
OC(c1cnc[nH]1)c1cccc2ccccc12 (stereo unspecified) [(1H-Imidazol-4-yl)-naphthalen-1-yl-methanol; hydrochloride]	61.9 µM
O=C(c1cnc[nH]1)c1cccc2ccccc12 [(1H-Imidazol-4-yl)-naphthalen-1-yl-methanone; oxalic acid]	580 µM
